Experimental data taken from patent US20120115905A1, “Nitrone, Nitroso, and Nitroxide Spintraps and Spin Labels and Their Hydroxylamines” (priority 2010, published 2012).
“Also recorded” adds a separate entry of the source.

Tests used:
migraine headache = assay: Treatment of migraine headache; format: in vivo, human; conditions: for migraine headache (summary statement): humans, route and dose not stated
Experimental: (§1) The reduced form of TEMPOL (TEMPOL-H) or equivalent pharmacologically-active spin label/spintrap is prepared by mixing together 2 grams of TEMPOL or a pharmacologically effective amount of another spin-label or spin trap such as methynitrosopropane, 20 grams of ascorbic acid or other reducing compound in 100 ml of distilled water. The formulation is used as is. The solution is slightly-bitter. The formulation can be administered diluted in a suitable liquid such as juice, tea, or coffee. An equivalent dry form as 10 mg of tempol mixed with 100 mg of acsorbic acid or equivalent reducing substance can be easily prepared in capsule or tablet form.
(§2) One-half ml of the above solution, comprising 10 mg TEMPOL plus 100 mg ascorbic acid, was administered orally once a day to a 50 kg person with a long history for fibrocystic disease of breast so severe that surgeons had recommended mastectomy. The same person had also been previously-diagnoses with severe trigeminal neuralgia.

[1] = test system: premenstrual dysphoric disorder; assay: Treatment of premenstrual dysphoric disorder; format: in vivo, human; conditions: for premenstrual dysphoric syndrome and its associated comorbid symptoms (summary statement): humans, route and dose not stated
Experimental: as §1, §2

influenza = assay: Amelioration of influenza symptomology; format: in vivo, human; conditions: for influenza (summary statement): humans, route and dose not stated
trigeminal neuralgia = assay: Treatment of trigeminal neuralgia in a patient; format: in vivo, human; conditions: for trigeminal neuralgia (summary statement): humans, route and dose not stated
Experimental: as §1, §2
(§3) Long-term relief can be achieved, but the symptoms eventually reappear on cessation of treatment for a few weeks.

rectal hemorrhoids = assay: Treatment of rectal hemorrhoids; format: in vivo, human; conditions: for rectal hemorrhoids (summary statement): humans, route and dose not stated
Experimental: Boil until methycellulose dissolves (5-10 minutes)
Alternative is I million-dalton MW 1% propylcellulose, which dissolves overnight without boiling.
Add 5 grams TEMPOL with stirring

[2] = test system: fibrocystic disease of breast; assay: Treatment of fibrocystic disease of breast in a patient; format: in vivo, human
Experimental: as §1, §2, §3

[3] = test system: gingivitis and peridontitis; assay: Treatment of gingivitis and peridontitis; format: in vivo, human; conditions: for peridontitis and gingivitis (summary statement): humans, route and dose not stated
herpes zoster lesions = assay: Treatment of herpes zoster lesions; format: in vivo, human; conditions: for herpes zoster lesions (summary statement): humans, route and dose not stated
post-herpetic neuropathy = assay: Treatment of post-herpetic neuropathy / neuralgia; format: in vivo, human; conditions: for post-herpetic neuralgia (summary statement): humans, route and dose not stated
Experimental: as §1
One-half ml of the above solution was orally-administered daily to a middle-aged person with chronic post-herpetic neuropathy of the feet, peridontitis, and gingivitis.

animal models = conditions: cited from earlier work
humans = conditions: human clinical trials, even at several grams per day doses; cited from earlier work
cyclic vomiting syndrome = assay: Treatment of cyclic vomiting syndrome; format: in vivo, human; conditions: the above treatment (10 mg TEMPOL plus 100 mg ascorbic acid orally once a day)
rhinositis = assay: Local nasal treatment of rhinositis; format: in vivo, human; conditions: 0.1 ml applied locally to the nasal cavity
[4] = test system: peripheral vascular disease; assay: Treatment of peripheral vascular disease; format: in vivo, human; conditions: the above treatment (10 mg TEMPOL plus 100 mg ascorbic acid orally once a day)
[5] = 10 mg TEMPOL plus 100 mg ascorbic acid orally once a day, same patient
[6] = one-half ml of solution orally daily, middle-aged male
[7] = topical application once a day to the affected area

Compound: CC1(C)CC(O)CC(C)(C)N1[O] [TEMPOL, 4-hydroxy-2,2,6,6-tetramethylpiperidin-1-yloxy]
- migraine headache (summary statement) (migraine headache): prevent and treat
- premenstrual dysphoric syndrome and its associated comorbid symptoms (summary statement) [1]: ameliorate
- influenza (summary statement) (influenza): ameliorate
- trigeminal neuralgia (summary statement) (trigeminal neuralgia): ameliorate
- symptoms of rectal hemorrhoids (rectal hemorrhoids; 0.2 ml of 5% solution (methyl cellulose gel) transrectally for one to three days): ameliorates the symptoms of rectal hemorrhoids, especially pain, swelling, and bleeding
- rectal hemorrhoids (summary statement) (rectal hemorrhoids): ameliorate
- efficacy of Tempol itself (unreduced) ([2]; same doses as the reduced formulation): effective at the same doses
- gingivitis and peridontitis, local intraoral treatment ([3]; 0.5 ml of 5% TEMPOL liquid or gel applied to the affected gums for one to three days): reducing tenderness and bleeding
- peridontitis and gingivitis (summary statement) [3]: ameliorate
- herpes zoster lesions (summary statement) (herpes zoster lesions): prevent and treat
- post-herpetic neuralgia (summary statement) (post-herpetic neuropathy): prevent and treat

Compound: CC(C)(C)[N+]([O-])=Cc1ccc(S(=O)(=O)[O-])cc1S(=O)(=O)[O-].[Na+].[Na+] [NXY-059, disulfonyl PBN]
- neuroprotective efficacy in animal models (animal models): effective in animal models
- neuroprotective efficacy in humans (humans): not in humans; also recorded: perpetual failure

Compound: CC1(C)CC(O)CC(C)(C)N1O [TEMPOL-H]
- migraine headache (summary statement) (migraine headache): prevent and treat
- migraine headache prevention and symptoms (migraine headache; the above treatment (10 mg TEMPOL plus 100 mg ascorbic acid orally once a day)): both prevents migraine headache and ameliorates the symptoms
- symptoms of anxiety/depression and mood swings outside the premenstrual time period [1, 5]: Efficacy was observed
- symptoms of premenstrual dysphoric disorder including comorbidity [1, 5]: alleviates and prevents
- premenstrual dysphoric syndrome and its associated comorbid symptoms (summary statement) [1]: ameliorate
- cyclic vomiting syndrome (cyclic vomiting syndrome): prevents, controls, and ameliorates
- influenza (summary statement) (influenza): ameliorate
- symptoms of influenza (influenza; one-half ml orally once or twice daily): significantly-ameliorates
- rhinositis (rhinositis): ameliorates rhinositis
- peripheral vascular disease [4]: controls, and ameliorates
- effect on long-standing trigeminal neuralgia (trigeminal neuralgia; [5]): alleviated and prevented
- trigeminal neuralgia (summary statement) (trigeminal neuralgia): ameliorate
- rectal hemorrhoids (summary statement) (rectal hemorrhoids): ameliorate
- time until first results appeared ([2]; 10 mg TEMPOL plus 100 mg ascorbic acid orally once a day, one patient): 1-2 weeks
- regression / shrinkage of the breast cysts ([2]; 10 mg TEMPOL plus 100 mg ascorbic acid orally once a day, one patient, mammographic imaging and digital palpation): almost complete regression; also recorded: shrinkage of the breast cysts
- breast cysts upon resumption of treatment ([2]; resumption after cessation of treatment for a few weeks, same oral dose): again drastically shrink
- peridontitis and gingivitis (summary statement) [3]: ameliorate
- symptomatic relief of peridontitis and gingivitis [3, 6]: Symptomatic relief of all of these was experienced within one week
- gingivitis and peridontitis, topical application ([3]; topical application of the reduced TEMPOL solution): also effective
- herpes zoster lesions (summary statement) (herpes zoster lesions): prevent and treat
- herpes zoster lesions, topical application (herpes zoster lesions; [7]): also effective
- post-herpetic neuralgia (summary statement) (post-herpetic neuropathy): prevent and treat
- symptomatic relief of chronic post-herpetic neuropathy of the feet (post-herpetic neuropathy; [6]): Symptomatic relief of all of these was experienced within one week
- post-herpetic neuralgia, topical application (post-herpetic neuropathy; [7]): also effective
